# Laboratory results reported in ChEMBL document CHEMBL1130269, “A 3D QSAR study of a series of HEPT analogues: the influence of conformational mobility on HIV-1 reverse transcriptase inhibition” (J Med Chem, 1997).
# Values joined by “and” are separate entries in the source; they are usually repeats but may differ in a detail not shown here. Equal entries are not always repeated.
# Target: Human immunodeficiency virus type 1 reverse transcriptase (Human immunodeficiency virus 1, UniProt Q72547)
# Assay: Inhibitory concentration against HIV-1 reverse transcriptase
row,SMILES,EC50
1,CCc1c(Cc2ccccc2)n(COCCO)c(=O)[nH]c1=O,350 nM
2,Cc1c(Sc2ccccc2)n(COCc2ccccc2)c(=O)[nH]c1=O,88 nM
3,CCOCn1c(Sc2ccccc2)c(C(C)C)c(=O)[nH]c1=S,14 nM
4,CCOCn1c(Sc2cc(Cl)cc(Cl)c2)c(CC)c(=O)[nH]c1=S,13 nM
5,CCOCn1c(Cc2cc(C)cc(C)c2)c(CC)c(=O)[nH]c1=O,1.6 nM
6,CCOCn1c(Cc2ccccc2)c(C(C)C)c(=O)[nH]c1=O [EMIVIRINE],4.2 nM
7,CCOCn1c(Cc2ccccc2)c(CC)c(=O)[nH]c1=O,41 nM
8,CCc1c(Cc2ccccc2)n(CCOC)c(=O)[nH]c1=O,250 nM
9,CCCCn1c(Sc2ccccc2)c(C)c(=O)[nH]c1=O,1200 nM
10,CC(C)c1c(Cc2ccccc2)n(COCCO)c(=O)[nH]c1=O,63 nM
11,CCc1c(Cc2cc(C)cc(C)c2)n(COCCO)c(=O)[nH]c1=O,13 nM
12,CCOCn1c(Sc2ccccc2)c(CC)c(=O)[nH]c1=O,19 nM
13,CCc1c(Sc2ccccc2)n(COCC2CCCCC2)c(=S)[nH]c1=O,350 nM
14,COCn1c(Sc2ccccc2)c(C)c(=O)[nH]c1=O,2100 nM
15,CCc1c(Sc2ccccc2)n(COCc2ccc(Cl)cc2)c(=S)[nH]c1=O,12 nM
16,CCc1c(Sc2ccccc2)n(COCCc2ccccc2)c(=O)[nH]c1=O,96 nM
17,Cc1cc(C)cc(Cc2c(C(C)C)c(=O)[nH]c(=O)n2COCCO)c1,2.7 nM
18,CCc1c(Sc2ccccc2)n(COCC2CCCCC2)c(=O)[nH]c1=O,450 nM
19,CCc1c(Sc2ccccc2)n(COC2CCCCC2)c(=S)[nH]c1=O,1600 nM

row,SMILES,EC50
1,CCn1c(Sc2ccccc2)c(C)c(=O)[nH]c1=O,2200 nM
2,COCCOCn1c(Sc2ccccc2)c(C)c(=O)[nH]c1=O,8700 nM
3,CCOCn1c(Sc2ccccc2)c(CC)c(=O)[nH]c1=S,26 nM
4,CC(C)c1c(Sc2ccccc2)n(COCc2ccccc2)c(=O)[nH]c1=O,2.7 nM
5,CCOCn1c(Sc2ccccc2)c(C(C)C)c(=O)[nH]c1=O,12 nM
6,CCc1c(Sc2ccccc2)n(COCc2ccccc2)c(=S)[nH]c1=O,7.8 nM
7,CCOCn1c(Sc2ccccc2)c(C)c(=O)[nH]c1=O,330 nM
8,COCCn1c(Cc2ccccc2)c(C(C)C)c(=O)[nH]c1=O,52 nM
9,CCOCn1c(Sc2ccccc2)c(C2CC2)c(=O)[nH]c1=S,95 nM
10,CCCOCn1c(Sc2ccccc2)c(C)c(=O)[nH]c1=O,3600 nM
11,CCOCn1c(Sc2cc(Cl)cc(Cl)c2)c(CC)c(=O)[nH]c1=O,7.4 nM
12,CC(C)c1c(Sc2ccccc2)n(COCc2ccccc2)c(=S)[nH]c1=O,6.8 nM
13,CCc1c(Sc2cc(C)cc(C)c2)n(COCc2ccccc2)c(=O)[nH]c1=O,3.2 nM
14,CCOCn1c(Sc2cc(C)cc(C)c2)c(CC)c(=O)[nH]c1=S,4.4 nM
15,CCc1c(Sc2cc(C)cc(C)c2)n(COCc2ccccc2)c(=S)[nH]c1=O,6.9 nM
16,CCc1c(Sc2ccccc2)n(CC(C)C)c(=S)[nH]c1=O,220 nM
17,CCc1c(Sc2ccccc2)n(COCc2ccccc2)c(=O)[nH]c1=O,5.9 nM
18,CCc1c(Sc2ccccc2)n(COCc2ccc(C)cc2)c(=S)[nH]c1=O,78 nM

# More lines, now with the values ahead:
row,EC50,SMILES
1,14 nM,CCc1c(Sc2cc(Cl)cc(Cl)c2)n(COCCO)c(=O)[nH]c1=O
2,4300 nM,O=c1[nH]c(=O)n(COCCO)c(Sc2ccccc2)c1I
3,2500 nM,Cc1c(Sc2ccccc2)n(C/C=C/c2ccccc2)c(=O)[nH]c1=O
4,91 nM,CCc1c(Sc2ccccc2)n(COCCc2ccccc2)c(=S)[nH]c1=O
5,1300 nM,Cc1c(Sc2cc(Cl)cc(Cl)c2)n(COCCO)c(=O)[nH]c1=O
6,40 nM,CCc1c(Sc2cc(C)cc(C)c2)n(C/C=C/c2cccs2)c(=O)[nH]c1=O
7,5700 nM,Cc1c(Sc2cccc(Br)c2)n(COCCO)c(=O)[nH]c1=O
8,8900 nM,Cc1c(Oc2ccccc2)n(COCCO)c(=O)[nH]c1=O
9,10000 nM,Cc1c(Sc2cccc(C#N)c2)n(COCCO)c(=O)[nH]c1=O
10,4700 nM,C=Cc1c(Sc2ccccc2)n(COCCO)c(=O)[nH]c1=O
11,220000 nM,Cc1ccc(Sc2c(C)c(=O)[nH]c(=O)n2COCCO)cc1
12,10000 nM,Cc1c(Sc2cccc(I)c2)n(COCCO)c(=O)[nH]c1=O
13,63 nM,CC(C)c1c(Sc2ccccc2)n(COCCO)c(=O)[nH]c1=O
14,100 nM,Cc1c(Sc2ccccc2)n(C/C=C/c2cccnc2)c(=O)[nH]c1=O
15,290 nM,CCc1c(Sc2ccccc2)n(CCCc2ccccc2)c(=O)[nH]c1=O
16,110 nM and 120 nM,CCc1c(Sc2ccccc2)n(COCCO)c(=O)[nH]c1=O
17,340 nM,CCc1c(Sc2ccccc2)n(CC(C)C)c(=O)[nH]c1=O
18,3500 nM,Cc1c(Sc2ccc(C3CCCCC3)cc2)n(COCCO)c(=O)[nH]c1=O
19,3300 nM,Cc1c(Sc2cccc(F)c2)n(COCCO)c(=O)[nH]c1=O
20,170 nM,CCc1c(Sc2ccccc2)n(C/C=C/c2ccco2)c(=O)[nH]c1=O
21,140000 nM,Cc1c(Sc2ccccc2[N+](=O)[O-])n(COCCO)c(=O)[nH]c1=O
22,19000 nM,COc1ccccc1Sc1c(C)c(=O)[nH]c(=O)n1COCCO
23,59 nM,CC(C)c1c(Sc2ccccc2)n(COCCO)c(=S)[nH]c1=O

row,EC50,SMILES
1,7300 nM,CC(=O)c1cccc(Sc2c(C)c(=O)[nH]c(=O)n2COCCO)c1
2,190 nM,CCc1c(Sc2ccccc2)n(C/C=C/c2ccccc2)c(=O)[nH]c1=O
3,82000 nM,Cc1c(Sc2cccc(O)c2)n(COCCO)c(=O)[nH]c1=O
4,40 nM,CCc1c(Sc2cc(C)cc(C)c2)n(C/C=C/c2ccco2)c(=O)[nH]c1=O
5,22000 nM,COc1cccc(Sc2c(C)c(=O)[nH]c(=O)n2COCCO)c1
6,80 nM,CCc1c(Sc2ccccc2)n(C/C=C/c2cccs2)c(=O)[nH]c1=O
7,34000 nM,Cc1c(Sc2cccc([N+](=O)[O-])c2)n(COCCO)c(=O)[nH]c1=O
8,43 nM,CCc1c(Sc2cc(Cl)cc(Cl)c2)n(COCCO)c(=S)[nH]c1=O
9,100 nM,CCOCn1c(Sc2ccccc2)c(C2CC2)c(=O)[nH]c1=O
10,2600 nM,Cc1cccc(Sc2c(C)c(=O)[nH]c(=O)n2COCCO)c1
11,5 nM,Cc1cc(C)cc(Sc2c(C(C)C)c(=O)[nH]c(=S)n2COCCO)c1
12,0.6 nM,CCOCn1c(Cc2cc(C)cc(C)c2)c(C(C)C)c(=O)[nH]c1=O
13,12000 nM,Cc1c(Sc2cccc(C(C)(C)C)c2)n(COCCO)c(=O)[nH]c1=O
14,2700 nM,CCc1cccc(Sc2c(C)c(=O)[nH]c(=O)n2COCCO)c1
15,5.4 nM,CCOCn1c(Sc2cc(C)cc(C)c2)c(CC)c(=O)[nH]c1=O
16,13000 nM,Cc1c(Sc2cccc(Cl)c2)n(COCCO)c(=O)[nH]c1=O
17,7900 nM,COC(=O)c1cccc(Sc2c(C)c(=O)[nH]c(=O)n2COCCO)c1
18,45000 nM,Cc1c(Sc2cccc(C(F)(F)F)c2)n(COCCO)c(=O)[nH]c1=O
19,7.8 nM,CCc1c(Sc2cc(C)cc(C)c2)n(COCCO)c(=S)[nH]c1=O
20,71000 nM,Cc1ccccc1Sc1c(C)c(=O)[nH]c(=O)n1COCCO
21,220 nM,Cc1cc(C)cc(Sc2c(C)c(=O)[nH]c(=S)n2COCCO)c1
22,4000 nM,CCc1c(Sc2ccccc2)n(COC2CCCCC2)c(=O)[nH]c1=O
23,5700 nM,Cc1c(Cc2ccccc2)n(COCCO)c(=O)[nH]c1=O
